Our source for the IC50 values is BindingDB's records for doi:10.1016/j.bmc.2015.04.057 (Beni-Suef University, 2015).

The nature of this experiment: Antiinflammatory activity in mouse RAW264.7 cells assessed as inhibition of LPS-induced iNOS activity incubated for 30 mins prior to LPS challenge measured after 24 hrs by Griess assay. (Griess reagent forms a coloured azo dye with nitrite.)
For orientation: IC50 means the concentration needed to halve the response being measured. For the compound `O=c1sc2ccccc2n1CCCCCN1CCN(CCCCCn2c(=O)sc3ccccc32)CC1`, the IC50 was 0.41 µM.

As for `O=c1oc2ccccc2n1CCCCCN1CCN(CCCn2c(=O)oc3ccccc32)CC1`, the IC50 was determined as 4.86 µM.

`O=c1sc2ccccc2n1CCCCCCN1CCN(CCCCn2c(=O)sc3ccccc32)CC1`: the IC50 was found to be 0.51 µM.

As to `O=c1sc2ccccc2n1CCCCCCN1CCN(CCCn2c(=O)sc3ccccc32)CC1`, the IC50 stood at 2.57 µM.

With `O=c1sc2ccccc2n1CCCCCCN1CCN(CCn2c(=O)sc3ccccc32)CC1`, the IC50 was found to be 3.43 µM.

For `O=c1oc2ccccc2n1CCCCCN1CCN(CCCCCn2c(=O)oc3ccccc32)CC1`, the IC50 is 4.43 µM.

For `O=c1oc2ccccc2n1CCCCCCN1CCN(CCCCCn2c(=O)oc3ccccc32)CC1`, the IC50 is 2.9 µM.

As to `O=c1sc2ccccc2n1CCCCCCN1CCN(CCCCCn2c(=O)sc3ccccc32)CC1`, the IC50 was determined as 0.29 µM.

For the compound `O=c1sc2ccccc2n1CCCCN1CCN(CCCn2c(=O)sc3ccccc32)CC1`, the IC50 amounted to 4.51 µM.

For `O=c1sc2ccccc2n1CCCCCN1CCN(CCCn2c(=O)sc3ccccc32)CC1`, the IC50 was 2.55 µM.

`O=c1sc2ccccc2n1CCCN1CCN(CCCn2c(=O)sc3ccccc32)CC1`: the IC50 was determined as 4.62 µM.

In the case of `O=c1oc2ccccc2n1CCCCCCN1CCN(CCCn2c(=O)oc3ccccc32)CC1`, the IC50 was 4.5 µM.

Take `c1ccc2oc(SCCCCN3CCN(CCCCSc4nc5ccccc5o4)CC3)nc2c1`: the IC50 worked out at 1.12 µM.

Take `O=c1oc2ccccc2n1CCCCCN1CCN(CCn2c(=O)oc3ccccc32)CC1`: the IC50 was found to be 4.98 µM.

Take `c1ccc2sc(SCCCCN3CCN(CCCCSc4nc5ccccc5s4)CC3)nc2c1`: the half-inhibitory concentration (IC50) stood at 0.41 µM.

Turning to `O=c1oc2ccccc2n1CCCCCCN1CCN(CCCCCCn2c(=O)oc3ccccc32)CC1`, the IC50 stood at 4.22 µM.

Turning to `O=c1sc2ccccc2n1CCCCCN1CCN(CCn2c(=O)sc3ccccc32)CC1`, the IC50 came to 4.51 µM.

In the case of `O=c1sc2ccccc2n1CCCCCCN1CCN(CCCCCCn2c(=O)sc3ccccc32)CC1`, the IC50 came out at 0.28 µM.

Regarding `O=c1oc2ccccc2n1CCCCCCN1CCN(CCCCn2c(=O)oc3ccccc32)CC1`, the IC50 was 1.77 µM.

For `O=c1oc2ccccc2n1CCCCCN1CCN(CCCCn2c(=O)oc3ccccc32)CC1`, the IC50 is 4.54 µM.

For the compound `O=c1oc2ccccc2n1CCCCCCN1CCN(CCn2c(=O)oc3ccccc32)CC1`, the IC50 stood at 4.66 µM.
